Assay results: US9738652B2, “Spiro urea compounds as RSV antiviral compounds” (priority 2014, dated 2017)

Legend:
rgRSV224 virus = test: Antiviral activity: rgRSV224 (GFP) replication in HeLa cells; conditions: human respiratory syncytial virus, 72 h, read-out: RSV HELA pEC50 (converted)
Protocol: Black 384-well clear-bottom microtiter plates (Corning, Amsterdam, The Netherlands) were filled via acoustic drop ejection using the echo liquid handler (Labcyte, Sunnyvale, Calif.). 200 nL of compound stock solutions (100% DMSO) were transferred to the assay plates. 9 serial 4-fold dilutions of compound were made, creating per quadrant the same compound concentration. The assay was initiated by adding 10 μL of culture medium to each well (RPMI medium without phenol red, 10% FBS-heat inactivated, 0.04% gentamycin (50 mg/mL). All addition steps are done by using a multidrop dispenser (Thermo Scientific, Erembodegem, Belgium). Next, rgRSV224 virus (MOI=1) diluted in culture medium was added to the plates. rgRSV224 virus is an engineered virus that includes an additional GFP gene (Hallak L K, Spillmann D, Collins P L, Peeples M E. Glycosaminoglycan sulfation requirements for respiratory syncytial virus infection; Journal of virology (2000), 74(22), 10508-13) and was in-licensed from the NIH (Bethesda, Md., USA). Finally, 20 μL of a HeLa cell suspension (3,000 cells/well) were plated. Medium, virus- and mock-infected controls were included in each test. The wells contain 0.05% DMSO per volume. Cells were incubated at 37° C. in a 5% CO2 atmosphere. Three days post-virus exposure, viral replication was quantified by measuring GFP expression in the cells by an in house developed MSM laser microscope (Tibotec, Beerse, Belgium). The EC50 was defined as the 50% inhibitory concentration for GFP expression. In parallel, compounds were incubated for three days in a set of white 384-well microtiter plates (Corning) and the cytotoxicity of compounds in HeLa cells was determined by measuring the ATP content of the cells using the ATPlite kit (Perkin Elmer, Zaventem, Belgium) according to the manufacturer's instructions. The CC50 was defined as the 50% concentration for cytotoxicity.

[1] = Cytotoxicity in HeLa cells (ATPlite, CC50) used for selectivity index; conditions: human
Protocol: The wells contain 0.05% DMSO per volume. Cells were incubated at 37° C. in a 5% CO2 atmosphere. […] In parallel, compounds were incubated for three days in a set of white 384-well microtiter plates (Corning) and the cytotoxicity of compounds in HeLa cells was determined by measuring the ATP content of the cells using the ATPlite kit (Perkin Elmer, Zaventem, Belgium) according to the manufacturer's instructions. The CC50 was defined as the 50% concentration for cytotoxicity.

| SMILES | EC50 (rgRSV224 virus) [nM] | selectivity ratio at 3 days [1] | melting point [°C] |
| --- | --- | --- | --- |
| CNC(=O)N1CCC2(CC1)C(=O)N(Cc1nc3cc(Cl)ccc3n1CCCC#N)c1cnccc12 [Co. No. 26, 1′-[[5-chloro-1-(3-cyanopropyl)benzimidazol-2-yl]methyl]-N-methyl-2′-oxo-spiro[piperidine-4,3′-pyrrolo[2,3-c]pyridine]-1-carboxamide] | 0.055 | > 1.82e+06 | 99.81 |
| N#CCCCn1c(CN2C(=O)C3(CN(C(=O)NC4CCOCC4)C3)c3ccccc32)cc2cc(Cl)ccc21 [Co. No. 6, 1′-[[5-chloro-1-(3-cyanopropyl)indol-2-yl]methyl]-2′-oxo-N-tetrahydropyran-4-yl-spiro[azetidine-3,3′-indoline]-1-carboxamide] | 0.316 | 100000 |  |
